# Assay results taken from patent US20190343853A1, “METHODS OF TREATING HYPERTENSION” (THERACOS SUB, LLC, priority 2018, published 2019).
# Tests used:
# [1] = tested on: subjects with seated office systolic blood pressure of ≥140 mm Hg and <180 mm Hg; test: Study THR-1442-C-603A: double-blind placebo-controlled 12 week trial in a hypertensive population not pre-selected for diabetes; type: in vivo, human
# Method: A qualified ABPM record contained no fewer than 64 measurements over an approximately 24 h period and a mean SBP≥135 mm Hg.
# A total of 678 subjects were randomly assigned to the active arm or to the placebo arm.
# The study was conducted in the United States at multiple clinical sites. The randomized population consisted of 409 male and 269 female participants with a mean age ±standard deviation of 58.5±11.74. […] 64.7% were self-declared Caucasian, 29.9% African-American, 1.6% Asian, 0.3% Native American/Native Alaskan, 0.1% Native Hawaiian/Other Pacific Islander, 1.0% Multiracial and 2.2% Other. 8.1% self-declared Hispanic or Latino ethnicity. The study population was obese, having a median body mass index (kg m^−2) of 31.9 and a mean weight of 98.3±35.0 kg. A history of diagnosed diabetes was elicited from 24.3% of the subjects and 18.0% were presently unmedicated for hypertension.
# The baseline 24 h average SBP from ABPM was 147.3±9.93 and the DBP was 84.5±9.65. 11.7% of the subjects produced a baseline ABPM SBP≥160 mm Hg.
# Following self-administration of investigational product for 12 weeks, subjects underwent ABPM to assess the potential treatment effect. After the first 300 subjects had completed 12 weeks of participation, the mean SBP was 140.90, corresponding to a decrease from baseline in the entire population of 6.4 mm Hg.
# A total of 678 subjects were randomized, of whom 5 were excluded for major protocol violations. Of the remaining 673 participants, 307 out of 334 in the bexagliflozin arm and 319 out of 339 in the placebo arm completed the study. The arms were well-balanced in general by demographic characteristics. The population was predominantly male (60.5%) and Caucasian (65.2%) with the remainder by race predominantly of African heritage (29.4%). Participants of Latino ethnicity comprised 8.0% of the total. The mean age was 58.9 years and 24.8% were diabetic. The mean subject was obese with a BMI of 32.6 kg/m^2, and 81% reported at least one prescription for anti-hypertensive medication. ACE inhibitors and ARBs were the most commonly encountered agents. Calcium channel blockers, diuretics and β-blockers were the next most commonly encountered, in that order. The mean seated office blood pressure was 156/91 with a heart rate of 73. The mean ABPM at baseline was 147.5/85.0. Nearly all participants had preserved renal function.
# [2] = tested on: spontaneously hypertensive rat, stroke prone strain (SHRSP); details: previously reported (Zhang 2011); cited from earlier work
# subjects with diabetes = test: Example 1/2: multicenter double-blind placebo-controlled 96 week trial, seated office blood pressure and blood-pressure TEAEs; type: in vivo, human
# Method: In a multicenter double-blind placebo-controlled trial, subjects with diabetes were administered Compound 1, 20 mg per day or placebo for 96 weeks. The blood pressure of resting seated subjects was measured at every office visit. Although the study population was not specifically recruited to contain participants with hypertension, a fraction of the population was affected by the disease and the mean baseline systolic blood pressure of the entire study population was 127 mm Hg. The effects of Compound 1 and placebo on systolic and diastolic blood pressure as a function of time are shown in FIG. 5 (systolic) and FIG. 6 (diastolic).
# A treatment emergent adverse event (TEAE) is an adverse event that develops during or immediately following the period of exposure to the investigational product in a clinical trial. An adverse event is any event that represents an unfavorable change in the health of the individual that is clinically significant—it may represent a new condition or status or materially worsened pre-existing condition. In the clinical trial of Example 1, hypertension was recorded as a TEAE in 2 subjects that had been administered Compound 1 and in 5 subjects administered placebo. […] One episode of hypotension was observed among subjects administered Compound 1 and none among subjects administered placebo. The lower incidence of hypertensive TEAEs and the single episode of hypotension are consistent with the antihypertensive effect of Compound 1. In addition, the observation of only a single episode of hypotension is notable because the mean systolic blood pressure at baseline was only 127 mm Hg, well below the 140 mm Hg level that demarks a widely adopted standard for the diagnosis of hypertension.
# [3] = subjects with systolic blood pressure of 140 mm Hg or above at study entry, 20 mg per day, persisted for duration of trial
compound,measurement,setting,value
"OC[C@H]1O[C@@H](c2ccc(Cl)c(Cc3ccc(OCCOC4CC4)cc3)c2)[C@H](O)[C@@H](O)[C@@H]1O [Compound 1, (2S,3R,4R,5S,6R)-2-(4-chloro-3-(4-(2-cyclopropoxyethoxy)benzyl)phenyl)-6-(hydroxymethyl)tetrahydro-2H-pyran-3,4,5-triol]",proportion of subjects achieving a seated office DBP≤90 mm Hg,"[1]; 20 mg tablets, 12 weeks",0.65
same,proportion of subjects achieving a seated office SBP≤140 mm Hg,"[1]; 20 mg tablets, 12 weeks",0.38
same,placebo-adjusted change in seated office SBP from baseline,"[1]; 20 mg tablets, 12 weeks, 95% confidence interval −6.83, −2.42, p<0.0001",−4.63 mm Hg
same,placebo-adjusted change in seated office DBP from baseline,"[1]; 20 mg tablets, week 12, 95% CI −3.70, −0.91, p=0.0011",−2.31 mm Hg
same,anti-hypertensive effect over the 24 h ABPM data collection period (hourly change in blood pressure),[1]; ABPM,did not show significant waning
same,placebo-adjusted reduction in ambulatory mean SBP from baseline to week 12,"[1]; ABPM, p=0.0025",2.72 mm Hg
same,adverse events by percentage among participants,"[1]; active arm, 12 weeks",41.9%
same,adverse events leading to subject withdrawal or treatment discontinuation,"[1]; active arm, 12 weeks",1.8%
same,serious adverse events,[1]; active versus placebo arm,balanced between the arms
same,treatment effect by ABPM SBP measurement,"[1]; subgroup: concomitant diuretic use, p=0.0021",−5.60 mm Hg
same,treatment effect by ABPM SBP measurement,"[1]; subgroup: concomitant β-blocker use, p=0.0012",−6.26 mm Hg
same,treatment effect by ABPM SBP measurement,"[1]; subgroup: history of diabetes, p=0.0023",−6.07 mm Hg
same,treatment effect by ABPM SBP measurement,"[1]; subgroup: participants with stage 3 CKD, p=0.0571",−7.53 mm Hg
same,treatment effect by ABPM SBP measurement,"[1]; subgroup: use of 3 or more anti-hypertensive medications, p=0.0071",−5.55 mm Hg
same,odds ratio for achieving seated office DBP≤90 mm Hg,"[1]; versus placebo arm, 95% CI 1.13, 2.35, p=0.0094",1.63
same,odds ratio for achieving seated office SBP≤140 mm Hg,"[1]; versus placebo arm, 95% CI 1.32, 2.62, p=0.0004",1.86
same,effect in SHRSP rat,[2],protective effects
same,episodes of hypotension,"subjects with diabetes; 20 mg per day, 96 weeks",One
same,hypertension recorded as a TEAE,"subjects with diabetes; 20 mg per day, 96 weeks",2 subjects
same,hypertensive crisis,"subjects with diabetes; 20 mg per day, 96 weeks",0 subjects
same,propensity for producing deleterious reductions in blood pressure,subjects with diabetes; mean systolic blood pressure at baseline 127 mm Hg,favorably low propensity
same,reduction in diastolic blood pressure,subjects with diabetes; [3],approximately 7 mm Hg
same,reduction in systolic blood pressure,subjects with diabetes; [3],approximately 12 mm Hg
